Values quoted from earlier work in paper PMC9074375 (The journal of physical chemistry. B, 2022).

Tested on: malignant cells

FLGVLALLGYLAVRPFLPKKKQQK [NAF-1^44-67]
permeation of the plasma membrane (malignant versus normal cells): selectively permeates the plasma membrane of malignant but not normal cells | killing of cancer cells (peptide alone, without therapeutic cargo): kill cancer cells by itself, without carrying additional therapeutic cargo and without damaging normal cells
